Measurements published in ChEMBL document CHEMBL4130444, “1,4-Naphthoquinones as inhibitors of Itch, a HECT domain-E3 ligase, and tumor growth suppressors in multiple myeloma” (Eur J Med Chem, 2017).

Assays:
[1] = tested on: MDA-MB-231; assay: Antiproliferative activity against human MDA-MB-231 cells incubated for 48 hrs by SRB assay; assay type: functional; details: MDA-MB-231, 48 h
[2] = tested on: HCT-116; assay: Antiproliferative activity against human HCT116 cells incubated for 48 hrs by SRB assay; assay type: functional; details: HCT-116, 48 h

GI50 [1]: > 10 µM
GI50 [2]: > 10 µM
SMILES: O=C(Nc1cccc2[nH]ccc12)c1ccc(CNC2=C(Cl)C(=O)c3ccccc3C2=O)cc1
